Assay [1] deals with Acyl-protein thioesterase 1 (Homo sapiens, UniProt O75608). Description: Enzymatic Protein Activity Assay. How it is done:
(§1) The enzyme activities were determined by measuring the release of fluorescent 6,8-difluoro-4-methylumbelliferone (DiFMU) by the APT hydrolysis of DiFMU octanoate (DiFMUO) in a Tecan Infinite M200 microplate reader in a 96-well format.

Assay [2] deals with Acyl-protein thioesterase 2 (Homo sapiens, UniProt O95372). Description: Enzymatic Protein Activity Assay. Here is the method: as §1
Sequence of Acyl-protein thioesterase 2 (O95372 whole entry): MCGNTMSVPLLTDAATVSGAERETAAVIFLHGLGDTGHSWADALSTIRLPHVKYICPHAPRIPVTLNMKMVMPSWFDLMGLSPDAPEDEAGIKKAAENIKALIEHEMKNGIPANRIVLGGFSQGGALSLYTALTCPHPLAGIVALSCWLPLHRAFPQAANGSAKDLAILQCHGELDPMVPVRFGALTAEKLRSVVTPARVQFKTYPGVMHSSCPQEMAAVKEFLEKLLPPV

Sequence of Acyl-protein thioesterase 1 (O75608 whole entry): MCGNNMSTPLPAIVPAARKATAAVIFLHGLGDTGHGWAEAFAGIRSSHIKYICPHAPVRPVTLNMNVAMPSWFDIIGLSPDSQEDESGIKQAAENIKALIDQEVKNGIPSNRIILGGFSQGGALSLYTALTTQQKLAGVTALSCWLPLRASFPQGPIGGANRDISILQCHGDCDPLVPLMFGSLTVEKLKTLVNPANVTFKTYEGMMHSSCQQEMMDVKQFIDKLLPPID

Regarding `OB(O)c1ccc(Cl)c(Cl)c1` [3,4-Dichlorophenyl boronic acid], the IC50 in assay [1] was determined as 1.1 µM; in assay [2], 0.138 µM.

As for `OB(O)c1ccccc1-c1ccccc1` [(2-phenylphenyl)boranediol], the IC50 in assay [1] and in assay [2] was > 50 µM each time.

For the compound `OB(O)c1ccc(-c2ccccc2)cc1` [(4-phenylphenyl)boranediol], the IC50 in assay [1] stood at 16.9 µM; in assay [2] it was 3.55 µM.

For the compound `OB(c1ccccc1)c1cccc(COCc2cccc(B(O)c3ccccc3)c2)c1` [Phenylboronic acid, 7], the values for the IC50 in assay [1] and in assay [2] were 33.6 µM and 41.5 µM, respectively.

As for `OB(O)c1cc(F)cc(F)c1` [Phenylboronic acid, 8], the IC50 in assay [1] turned out to be 0.51 µM; in assay [2], 1.97 µM.

On to `OB(O)c1cccc(Cl)c1` [Phenylboronic acid, 10], for which the IC50 is 1.4 µM in assay [1] and 0.418 µM in assay [2].

Consider `OB(O)c1cc2ccccc2s1` [Phenylboronic acid, 11], for which the IC50 amounted to 2.3 µM in assay [1] and 0.529 µM in assay [2].

As to `NCCOB(c1ccccc1)c1ccc(COCc2ccc(B(OCCN)c3ccccc3)cc2)cc1` [Phenylboronic acid, 13], the 50% inhibitory concentration (IC50) in assay [1] was 2.7 µM; in assay [2], 4.1 µM.

As to `CN(C)CCOB(c1ccccc1)c1cccc(COCc2cccc(B(OCCN(C)C)c3ccccc3)c2)c1` [Phenylboronic acid, 14], the IC50 was found to be 3.2 µM in assay [1] and 1.8 µM in assay [2].

As to `OB(O)c1cc(Oc2ccccc2)ccc1I` [Phenylboronic acid, 15], the values for the IC50 in assay [1] and in assay [2] were 3.2 µM and 0.238 µM, respectively.

Take `COC(=O)c1cc(B(O)O)cc([N+](=O)[O-])c1` [Phenylboronic acid, 16]: the results for the IC50 in assay [1] and in assay [2] were 3.7 µM and 2.95 µM, respectively.

For the compound `CC(=O)c1cccc(B(O)O)c1` [Phenylboronic acid, 17], the values for the IC50 in assay [1] and in assay [2] were 3.9 µM and 2.87 µM, respectively.

On to `OB(O)c1ccc(Cl)cc1` [Phenylboronic acid, 18], for which the IC50 was found to be 4.6 µM in assay [1] and 4.18 µM in assay [2].

Regarding `Cc1ccc(Br)c(B(O)O)c1` [Phenylboronic acid, 19], the IC50 is 6.3 µM in assay [1] and 2.16 µM in assay [2].

Turning to `OB(O)c1cc2ccccc2o1` [Phenylboronic acid, 21], the IC50 in assay [1] came to 13.5 µM; in assay [2] it was 11.3 µM.

As for `OB(O)c1ccccc1` [Phenylboronic acid, 22], the IC50 in assay [1] is 14.7 µM; in assay [2], 25.1 µM.

One may read the IC50 as the concentration that inhibits the measured activity by half. High values mean a need for much substance, low ones inhibition by little substance.

The values above are taken from BindingDB's records for doi:10.1002/cbic.201200571 (Technical University of Dortmund, 2013).
